Data on 2 molecules can be found in patent US20220323533A1, “COMPOSITION FOR PREVENTING, INHIBITING OR TREATING INFECTION OF CORONAVIRUS” (priority 2021, published 2022).

Some results are limits rather than exact numbers.

The subject of one data set is SARS-CoV-2. Type of data set: cell-based.

Turning to `OC[C@H]1NC[C@H](O)[C@@H](O)[C@@H]1O` [Comparative Example 2, 1-Deoxynojirimycin], in the data set on Vero cells, the CC50 was above 500 µg/mL. Besides, the IC50 with SARS-CoV-2 (SARS-CoV-2 (0.0125 MOI) in Vero cells, 24 hours, N protein immunofluorescence, highest concentration 500 μg/ml, two repeated experiments) is above 500 µg/mL. Also, the “inhibition of infection with SARS-CoV-2 (in words)” value with SARS-CoV-2 (Vero cells, up to 500 μg/ml) is recorded as “did not inhibit infection”.
Take Propolis [Comparative Example 1]: the CC50 with Vero cells is above 500 µg/mL.
